Reference: US9663496B2, “AMPK-activating heterocyclic compounds and methods for using the same” (Rigel Pharmaceuticals, Inc., priority 2010, dated 2017)

Molecular target: AMPK
Assay: AMPK activation, enzyme-linked immunosorbent assay
Format: biochemical
Details: EC50 for AMPK activation, ELISA
In short: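 Compounds were tested for their capacity to activate the kinase using standard, commercially available kit reagents and procedures.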

| Compound | EC50 [µM] |
| --- | --- |
| N#Cc1ccc(Oc2ccc(NC(=O)c3ccc(C(=O)N4CCC(C(=O)c5ccc(F)cc5F)CC4)nc3)nc2)cc1 [Compound 469, N-(5-(4-cyanophenoxy)pyridin-2-yl)-6-(4-(2,4-difluorobenzoyl)piperidine-1-carbonyl)nicotinamide] | < 0.5 |
| N#Cc1ccc(CN2CCC(NC(=O)c3ccc(C(=O)N4CCC(Oc5ccc(NC(=O)CCOCCOCCOCCOCCNC(=O)CCC[C@@H]6SC[C@@H]7NC(=O)N[C@@H]76)cc5)CC4)nc3)CC2)cc1 [Compound 371, N-(1-(4-cyanobenzyl)piperidin-4-yl)-6-(4-(4-(17-oxo-20-((3aS,4S,6aR)-2-oxohexahydro-1H-thieno[3,4-d]imidazol-4-yl)-4,7,10,13-tetraoxa-16-azaicosanamido)phenoxy)piperidine-1-carbonyl)nicotinamide] | > 10 |
| COc1cccc(OC2CCCN(C(=O)c3ccc(C(=O)NC4CCN(Cc5ccc(C#N)cc5)CC4)nc3)C2)c1 (centres unmarked) [Compound 277, N-(1-(4-cyanobenzyl)piperidin-4-yl)-5-(3-(3-methoxyphenoxy)piperidine-1-carbonyl)picolinamide] | < 0.5 |
| COc1ccc(C(=O)C2CCN(C(=O)c3ccc(C(=O)N[C@H]4CCN(Cc5ccc(C#N)cc5)C[C@@H]4F)cn3)CC2)cc1 [Compound 453, N-((3S,4S)-1-(4-cyanobenzyl)-3-fluoropiperidin-4-yl)-6-(4-(4-methoxybenzoyl)piperidine-1-carbonyl)nicotinamide] | < 0.5 |
| O=C(Nc1ccc(C(=O)N2CCN(Cc3ccc(F)cc3)CC2)cn1)c1ccc(-c2ccccc2)cc1 [Compound 170, N-(5-(4-(4-fluorobenzyl)piperazine-1-carbonyl)pyridin-2-yl)biphenyl-4-carboxamide] | > 10 |
| N#Cc1ccc(CN2CCC(NC(=O)c3ccc(N4CCC(Oc5ccc(C(F)(F)F)cc5)CC4)nn3)CC2)cc1 [Compound 361, N-(1-(4-cyanobenzyl)piperidin-4-yl)-6-(4-(4-(trifluoromethyl)phenoxy)piperidin-1-yl)pyridazine-3-carboxamide] | < 0.5 |
| N#Cc1ccc(O[C@H]2CC[C@@H](NC(=O)c3ccc(C(=O)N4CCC(Oc5ccc(C(F)(F)F)cc5)CC4)cn3)CC2)cc1 [Compound 190, N-((cis)-4-(4-cyanophenoxy)cyclohexyl)-5-(4-(4-(trifluoromethyl)phenoxy)piperidine-1-carbonyl)picolinamide] | < 0.5 |
| COc1ccc(C(=O)C2CCN(C(=O)c3ccc(C(=O)NC4CCC(Oc5ccc(C#N)cc5)CC4)cn3)CC2)cc1 (centres unmarked) [Compound 315, N-((1s,4s)-4-(4-cyanophenoxy)cyclohexyl)-6-(4-(4-methoxybenzoyl)piperidine-1-carbonyl)nicotinamide] | < 0.5 |
| COc1ccc(O[C@H]2CC[C@@H](NC(=O)c3ccc(C(=O)N4CCC(Oc5ccc(C(F)(F)F)cc5)CC4)cn3)CC2)cc1 [Compound 185, N-((cis)-4-(4-methoxyphenoxy)cyclohexyl)-5-(4-(4-(trifluoromethyl)phenoxy)piperidine-1-carbonyl)picolinamide] | < 0.5 |
| O=C(Nc1ccc(Oc2ccc(F)cc2)nc1)c1ccc(C(=O)N2CCC(Oc3ccc(NS(=O)(=O)C4CC4)cc3)CC2)nc1 [Compound 449, 6-(4-(4-(cyclopropanesulfonamido)phenoxy)piperidine-1-carbonyl)-N-(6-(4-fluorophenoxy)pyridin-3-yl)nicotinamide] | 1 to 5 |
| N#Cc1ccc(N2CCC(NC(=O)c3ccc(C(=O)N4CCN(Cc5ccc(F)cc5)CC4)nc3)CC2)cc1 [Compound 417, N-(1-(4-cyanophenyl)piperidin-4-yl)-6-(4-(4-fluorobenzyl)piperazine-1-carbonyl)nicotinamide] | < 0.5 |
| O=C(Nc1ccc(Oc2ccc(F)cc2)nc1)c1ccc(C(=O)N2CCC(C(=O)c3ccc(F)cc3)CC2)cn1 [Compound 272, 5-(4-(4-fluorobenzoyl)piperidine-1-carbonyl)-N-(6-(4-fluorophenoxy)pyridin-3-yl)picolinamide] | < 0.5 |
| CS(=O)(=O)c1ccc(OC2CCN(C(=O)c3cnc(C(=O)Nc4ccc(Oc5ccc(F)cc5)nc4)cn3)CC2)cc1 [Compound 207, N-(6-(4-fluorophenoxy)pyridin-3-yl)-5-(4-(4-(methylsulfonyl)phenoxy)piperidine-1-carbonyl)pyrazine-2-carboxamide] | < 0.5 |
| N#Cc1ccc(CN2CC[C@@H](NC(=O)c3ccc(C(=O)N4CCN(Cc5ccc(F)cc5)CC4)cn3)C2)cc1 [Compound 118, (R)-N-(1-(4-cyanobenzyl)pyrrolidin-3-yl)-5-(4-(4-fluorobenzyl)piperazine-1-carbonyl)picolinamide] | < 0.5 |
| COc1ccc(C(=O)C2CCN(C(=O)c3ccc(C(=O)Nc4ccc(Oc5ccc(F)cc5)nc4)cn3)CC2)cc1 [Compound 325, N-(6-(4-fluorophenoxy)pyridin-3-yl)-6-(4-(4-methoxybenzoyl)piperidine-1-carbonyl)nicotinamide] | < 0.5 |
| CS(=O)(=O)c1ccc(OC2CCN(C(=O)c3ccc(C(=O)NC4CCN(Cc5ccc(F)cc5)CC4)nc3)CC2)cc1 [Compound 226, N-(1-(4-fluorobenzyl)piperidin-4-yl)-5-(4-(4-(methylsulfonyl)phenoxy)piperidine-1-carbonyl)picolinamide] | < 0.5 |

| Compound | EC50 [µM] |
| --- | --- |
| COc1ccc(C(=O)C2CCN(C(=O)c3ccc(C(=O)NC4CCN(Cc5ccc(S(C)(=O)=O)cc5)CC4)cn3)CC2)cc1 [Compound 215, 6-(4-(4-methoxybenzoyl)piperidine-1-carbonyl)-N-(1-(4-(methylsulfonyl)benzyl)piperidin-4-yl)nicotinamide] | > 10 |
| CN1CCN(c2ccc(C(=O)C3CCN(C(=O)c4ccc(C(=O)NC5CCN(Cc6ccc(OC(F)(F)F)cc6)CC5)cn4)CC3)cc2)CC1 [Compound 244, 6-(4-(4-(4-methylpiperazin-1-yl)benzoyl)piperidine-1-carbonyl)-N-(1-(4-(trifluoromethoxy)benzyl)piperidin-4-yl)nicotinamide] | 5 to 10 |
| N#Cc1ccc(CN2CCC(NC(=O)c3ccc(C(=O)N4CCC(C(F)c5ccc(F)cc5)CC4)cn3)CC2)cc1 (centres unmarked) [Compound 138, N-(1-(4-cyanobenzyl)piperidin-4-yl)-5-(4-(fluoro(4-fluorophenyl)methyl)piperidine-1-carbonyl)picolinamide] | < 0.5 |
| CCOC(=O)c1ccc(OC2CCN(C(=O)c3ccc(C(=O)NC4CCN(Cc5ccc(C#N)cc5)CC4)nc3)CC2)cc1 [Compound 284, ethyl 4-(1-(6-(1-(4-cyanobenzyl)piperidin-4-ylcarbamoyl)nicotinoyl)piperidin-4-yloxy)benzoate] | < 0.5 |
| COc1ccc(C(=O)C2CCN(C(=O)c3ccc(C(=O)NC4CCN(Cc5cccc(OC(F)(F)F)c5)CC4)cn3)CC2)cc1 [Compound 424, 6-(4-(4-methoxybenzoyl)piperidine-1-carbonyl)-N-(1-(3-(trifluoromethoxy)benzyl)piperidin-4-yl)nicotinamide] | < 0.5 |
| N#Cc1ccc(CN2CCC(NC(=O)c3ccc(C(=O)N4C5CCC4CC(Oc4ccc(C#N)cc4)C5)cn3)CC2)cc1 [Compound 280, N-(1-(4-cyanobenzyl)piperidin-4-yl)-5-((1R,3r,5S)-3-(4-cyanophenoxy)-8-azabicyclo[3.2.1]octane-8-carbonyl)picolinamide] | < 0.5 |
| CC(=O)c1ccc(Oc2ccc(NC(=O)c3ccc(C(=O)N4CCN(Cc5ccc(F)cc5)CC4)nc3)cn2)cc1 [Compound 477, N-(6-(4-acetylphenoxy)pyridin-3-yl)-6-(4-(4-fluorobenzyl)piperazine-1-carbonyl)nicotinamide] | < 0.5 |
| O=C(Nc1cccc(-c2ccccc2)c1)c1ccc(C(=O)N2CCN(Cc3ccc(F)cc3)CC2)cn1 [Compound 12] | 5 to 10 |
| O=C(NC1CCN(Cc2ccc(OC(F)(F)F)cc2)CC1)c1ccc(C(=O)N2CCC(Oc3ccc(S(=O)(=O)C4CC4)cc3)CC2)nc1 [Compound 249, 6-(4-(4-(cyclopropylsulfonyl)phenoxy)piperidine-1-carbonyl)-N-(1-(4-(trifluoromethoxy)benzyl)piperidin-4-yl)nicotinamide] | < 0.5 |
| CS(=O)(=O)c1ccc(OC2CCN(C(=O)c3ccc(C(=O)N[C@@H]4CCN(Cc5ccc(C#N)cc5)C[C@H]4F)nc3)CC2)cc1 (relative stereo) [Compound 254, N-((trans)-1-(4-cyanobenzyl)-3-fluoropiperidin-4-yl)-5-(4-(4-(methylsulfonyl)phenoxy)piperidine-1-carbonyl)picolinamide] | < 0.5 |
| COc1ccc(CC2CCN(C(=O)c3ccc(C(=O)NC4CCN(Cc5ccc(C#N)cc5)CC4)nc3)CC2)cc1 [Compound 131, N-(1-(4-cyanobenzyl)piperidin-4-yl)-5-(4-(4-methoxybenzyl)piperidine-1-carbonyl)picolinamide] | < 0.5 |
| O=C(NC1CCN(Cc2cc(F)cc(F)c2)CC1)c1ccc(C(=O)N2CCC(Oc3ccc(C(F)(F)F)cc3)CC2)cn1 [Compound 294, N-(1-(3,5-difluorobenzyl)piperidin-4-yl)-5-(4-(4-(trifluoromethyl)phenoxy)piperidine-1-carbonyl)picolinamide] | < 0.5 |
| COc1ccc(C(=O)C2CCN(C(=O)c3ccc(C(=O)NC4CCN(Cc5ccc(C#N)cc5)CC4)nn3)CC2)cc1 [Compound 387, N-(1-(4-cyanobenzyl)piperidin-4-yl)-6-(4-(4-methoxybenzoyl)piperidine-1-carbonyl)pyridazine-3-carboxamide] | < 0.5 |
| CS(=O)(=O)c1ccc(OC2CCN(C(=O)c3ccc(C(=O)Nc4ccc(Oc5ccc(F)cc5)nc4)nc3)CC2)cc1 [Compound 231, N-(6-(4-fluorophenoxy)pyridin-3-yl)-5-(4-(4-(methylsulfonyl)phenoxy)piperidine-1-carbonyl)picolinamide] | < 0.5 |
| N#Cc1ccc(Oc2ccc(NC(=O)c3ccc(C(=O)N4CCC(S(=O)(=O)c5ccc(F)cc5)CC4)nc3)cn2)cc1 [Compound 472, N-(6-(4-cyanophenoxy)pyridin-3-yl)-6-(4-(4-fluorophenylsulfonyl)piperidine-1-carbonyl)nicotinamide] | 1 to 5 |
| CS(=O)(=O)c1ccc(C(=O)C2CCN(C(=O)c3ccc(C(=O)Nc4ccc(Oc5ccc(F)cc5)nc4)nc3)CC2)cc1 [Compound 232, N-(6-(4-fluorophenoxy)pyridin-3-yl)-5-(4-(4-(methylsulfonyl)benzoyl)piperidine-1-carbonyl)picolinamide] | < 0.5 |
